In patent US6410578B1, “Benzazole compounds and their use” (Novartis Animal Health US, Inc., priority 1998, dated 2002):

Assays:
[1] = system: Boophilus microplus Biarra (larvae); test: Arena test for vermin-repellent substances, Example A; details: in vitro arena test, ca. 60 to 100 larvae per well; for duration of repellent/deterrent action compared with DEET: DEET as standard; for repellent/deterrent action: evaluation of video images
Protocol: (§1) This method is carried out in titre plates having 6 wells with a cross-section of 5 cm each, using a computer-supported video system. Each well of the titre plate is lined with a circular filter paper or another suitable carrier material. The substance of formula I to be tested is dissolved in methanol, acetonitrile or another suitable solvent, with ultrasound treatment and heating being employed for poorly-soluble substances. In an amount of 1 to 100 mg/cm^2, the dissolved test substance is placed in the centre of the filter paper on a quadrant or circular area of ca. 2.4 cm^2 radius. 4 of the 6 wells are filled with different test substances or with the same test substance in different dilutions (e.g. 1, 3.2, 5, 10 and 20 mg/cm^2). The 5th well is treated with DEET (N,N-diethyl-m-toluamide) as standard substance. The 6th well is filled with the pure solvent and serves as a control. 60 to 100 larvae or 25 to 50 nymphs or 10 to 25 adults of the parasite to be tested, e.g. ticks, are added to each filter paper, and the system is covered with a pane of glass and positioned under a video camera.
(§2) At intervals of 5 seconds, the video camera takes individual pictures of all 6 wells. For a qualitative evaluation, these images are observed in a time-lapse as a continuous film, optically following the movements of the parasites on the filter paper and comparing them with the movements in the control well no. 6 or with the standard in the 5th well. A qualitative observation is thus made as to whether the test parasites move evenly over the whole surface of the filter paper and ignore the test substance, or whether and over what period they avoid the treated zone, and what influence the dilution of the test substance has on the behaviour of the test parasites. In this way, neutral and repellent substances are determined. At the same time, the duration of activity of the test substance is determined and compared with that of the standard. By plotting all the images for each individual well over one another, different areas of density are obtained. This represents the frequency at which the parasites visit certain places. This frequency is evaluated statistically and thus quantitatively by the Willcoxon method in a comparison with the control and with the standard.
In vitro Test; Test Animal: Boophilus microplus Biarra (Larvae)
The test is carried out as described above, with ca. 60 to 100 larvae being added per well.

[2] = system: Amblyomma hebraeum or variegatum (nymphs); test: Arena test for vermin-repellent substances, Example B; details: in vitro arena test, ca. 25 nymphs per well; for duration of repellent/deterrent action compared with DEET: DEET as standard; for repellent/deterrent action: evaluation of video images
Protocol: as §1, §2
In vitro Test; Test Animal: Amblyomma hebraeum or variegatum (Nymphs)
The test is carried out as described above, with ca. 25 nymphs being added per well.

[3] = system: Rhipicephalus sanguineus (nymphs); test: Arena test for vermin-repellent substances, Example C; details: in vitro arena test, ca. 40 to 50 nymphs; for duration of repellent/deterrent action compared with DEET: DEET as standard; for repellent/deterrent action: evaluation of video images
Protocol: as §1, §2
In vitro Test; Test Animal: Rhipicephalus sanguineus (Nymphs)
The test is carried out analogously to example B, with ca. 40 to 50 nymphs.

With COc1cc2nc(C)sc2cc1OC [5,6-dimethoxy-2-methylbenzothiazole] the “duration of repellent/deterrent action compared with DEET” value [1] was “lasts considerably longer than that of DEET”, the repellent/deterrent action [1] was “almost complete repellent/deterrent action” and the “duration of repellent/deterrent action compared with DEET” value [2] was “lasts considerably longer than that of DEET”. The repellent/deterrent action [2] was “almost complete repellent/deterrent action”, the “duration of repellent/deterrent action compared with DEET” value [3] was “lasts considerably longer than that of DEET” and the repellent/deterrent action [3] was “almost complete repellent/deterrent action”.

In the case of Cc1nc2cc(N)ccc2s1 [5-amino-2-methylbenzothiazole], the “duration of repellent/deterrent action compared with DEET” value [1] is reported as “lasts considerably longer than that of DEET”, the repellent/deterrent action [1] is reported as “almost complete repellent/deterrent action” and the “duration of repellent/deterrent action compared with DEET” value [2] is reported as “lasts considerably longer than that of DEET”. The repellent/deterrent action [2] was “almost complete repellent/deterrent action”, the “duration of repellent/deterrent action compared with DEET” value [3] was “lasts considerably longer than that of DEET” and the repellent/deterrent action [3] was “almost complete repellent/deterrent action”.
